Measured values taken from ChEMBL document CHEMBL4000186, “Design and synthesis of novel 2-substituted 11-keto-boswellic acid heterocyclic derivatives as anti-prostate cancer agents with Pin1 inhibition ability” (Eur J Med Chem, 2017).

What was measured:
PC-3 [1] = experiment: Cell cycle arrest in human PC3 cells assessed as accumulation at G2/M phase at 1 uM after 12 hrs by propidium iodide staining based flow cytometry (reference value: 22.4 %); assay type: functional
PC-3 [2] = experiment: Cell cycle arrest in human PC3 cells assessed as accumulation at sub G1 phase at 5 uM after 12 hrs by propidium iodide staining based flow cytometry (reference value: 1.6 %); assay type: functional
PC-3 [3] = experiment: Cell cycle arrest in human PC3 cells assessed as accumulation at sub G1 phase at 1 uM after 12 hrs by propidium iodide staining based flow cytometry (reference value: 1.6 %); assay type: functional
[4] = target: T1, Peptidyl-prolyl cis-trans isomerase NIMA-interacting 1 (Homo sapiens, UniProt Q13526); experiment: Inhibition of Pin1 in human PC3 cells assessed as downregulation of cyclin D1 expression measured after 24 hrs by Western blot method; assay type: cell-based
PC-3 [5] = experiment: Cell cycle arrest in human PC3 cells assessed as accumulation at sub G1 phase at 2.5 uM after 12 hrs by propidium iodide staining based flow cytometry (reference value: 1.6 %); assay type: functional
PC-3 [6] = experiment: Cell cycle arrest in human PC3 cells assessed as accumulation at G2/M phase at 2.5 uM after 12 hrs by propidium iodide staining based flow cytometry (reference value: 22.4 %); assay type: functional
PC-3 [7] = experiment: Induction of apoptosis in human PC3 cells assessed as decrease in pro-caspase 3 level measured after 24 hrs by Western blot method; assay type: functional, cell-based
PC-3 [8] = experiment: Cell cycle arrest in human PC3 cells assessed as accumulation at G0/G1 phase at 1 uM after 12 hrs by propidium iodide staining based flow cytometry (reference value: 65.6 %); assay type: functional
PC-3 [9] = experiment: Induction of apoptosis in human PC3 cells assessed as decrease in pro-caspase 9 level measured after 24 hrs by Western blot method; assay type: functional, cell-based
PC-3 [10] = experiment: Induction of apoptosis in human PC3 cells assessed as downregulation of c-FLIP expression measured after 24 hrs by Western blot method; assay type: functional, cell-based
PC-3 [11] = experiment: Cell cycle arrest in human PC3 cells assessed as accumulation at G0/G1 phase at 2.5 uM after 12 hrs by propidium iodide staining based flow cytometry (reference value: 65.6 %); assay type: functional
PC-3 [12] = experiment: Cell cycle arrest in human PC3 cells assessed as accumulation at G2/M phase at 5 uM after 12 hrs by propidium iodide staining based flow cytometry (reference value: 22.4 %); assay type: functional
PC-3 [13] = experiment: Cell cycle arrest in human PC3 cells assessed as accumulation at sub G1 phase at 1 uM after 24 hrs by propidium iodide staining based flow cytometry (reference value: 1.9 %); assay type: functional
PC-3 [14] = experiment: Cell cycle arrest in human PC3 cells assessed as accumulation at G2/M phase at 2.5 uM after 24 hrs by propidium iodide staining based flow cytometry (reference value: 22.7 %); assay type: functional
PC-3 [15] = experiment: Cell cycle arrest in human PC3 cells assessed as accumulation at sub G1 phase at 5 uM after 24 hrs by propidium iodide staining based flow cytometry (reference value: 1.9 %); assay type: functional
PC-3 [16] = experiment: Induction of apoptosis in human PC3 cells assessed as downregulation of Mcl-1 expression measured after 24 hrs by Western blot method; assay type: functional, cell-based
[17] = target: T1, Peptidyl-prolyl cis-trans isomerase NIMA-interacting 1; experiment: Inhibition of Pin1 (unknown origin) using Suc-Ala-Glu-cis-Pro-Phe-4-nitroanilide as substrate preincubated for 30 mins followed by substrate addition measured for 90 secs by protease-enzyme coupled assay
PC-3 [18] = experiment: Anti-proliferative activity against human PC3 cells measured after 96 hrs by MTT assay; assay type: functional; conditions: PC-3, 96 h
PC-3 [19] = experiment: Cell cycle arrest in human PC3 cells assessed as accumulation at G2/M phase at 1 uM after 24 hrs by propidium iodide staining based flow cytometry (reference value: 22.7 %); assay type: functional
PC-3 [20] = experiment: Cell cycle arrest in human PC3 cells assessed as accumulation at G0/G1 phase at 2.5 uM after 24 hrs by propidium iodide staining based flow cytometry (reference value: 63.9 %); assay type: functional
PC-3 [21] = experiment: Induction of apoptosis in human PC3 cells assessed as decrease in pro-caspase 8 level measured after 24 hrs by Western blot method; assay type: functional, cell-based
PC-3 [22] = experiment: Cell cycle arrest in human PC3 cells assessed as accumulation at sub G1 phase at 2.5 uM after 24 hrs by propidium iodide staining based flow cytometry (reference value: 1.9 %); assay type: functional
PC-3 [23] = experiment: Cell cycle arrest in human PC3 cells assessed as accumulation at G0/G1 phase at 1 uM after 24 hrs by propidium iodide staining based flow cytometry (reference value: 63.9 %); assay type: functional
PC-3 [24] = experiment: Cell cycle arrest in human PC3 cells assessed as accumulation at G0/G1 phase at 5 uM after 12 hrs by propidium iodide staining based flow cytometry (reference value: 65.6 %); assay type: functional
PC-3 [25] = experiment: Cell cycle arrest in human PC3 cells assessed as accumulation at G2/M phase at 5 uM after 24 hrs by propidium iodide staining based flow cytometry (reference value: 22.7 %); assay type: functional
LNCaP = experiment: Anti-proliferative activity against human LNCAP cells measured after 96 hrs by MTT assay; assay type: functional
PC-3 [26] = experiment: Induction of apoptosis in human PC3 cells assessed as induction of NOXA expression measured after 24 hrs by Western blot method; assay type: functional, cell-based
PC-3 [27] = experiment: Cell cycle arrest in human PC3 cells assessed as accumulation at G0/G1 phase at 5 uM after 24 hrs by propidium iodide staining based flow cytometry (reference value: 63.9 %); assay type: functional

T1 sequence (Q13526 whole entry): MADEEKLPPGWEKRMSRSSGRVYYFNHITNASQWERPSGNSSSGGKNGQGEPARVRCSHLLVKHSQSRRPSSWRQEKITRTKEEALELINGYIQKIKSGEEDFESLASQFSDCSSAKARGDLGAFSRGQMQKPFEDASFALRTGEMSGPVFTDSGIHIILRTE

## C[C@H]1[C@H](C)CC[C@]2(C)CC[C@]3(C)C(=CC(=O)[C@@H]4[C@@]5(C)C=C(C#N)C(=O)[C@](C)(C(=O)N6CCNCC6)[C@@H]5CC[C@]43C)[C@H]12
PC-3 [1]
  Activity: 26.1%
PC-3 [2]
  Activity: 19.5%
PC-3 [3]
  Activity: 2.7%
[4]
  inhibition: Dose-dependent effect
PC-3 [5]
  Activity: 10.2%
PC-3 [6]
  Activity: 27.6%
PC-3 [7]
  Activity: Dose-dependent effect
PC-3 [8]
  Activity: 58.5%
PC-3 [9]
  Activity: Dose-dependent effect
PC-3 [10]
  Activity: Dose-dependent effect
PC-3 [11]
  Activity: 52.2%
PC-3 [12]
  Activity: 22.8%
PC-3 [13]
  Activity: 8%
PC-3 [14]
  Activity: 22%
PC-3 [15]
  Activity: 88.1%
PC-3 [16]
  Activity: Dose-dependent effect
[17]
  IC50: 3570 nM
PC-3 [18]
  GI50: 40 nM
PC-3 [19]
  Activity: 29.7%
PC-3 [20]
  Activity: 33.7%
PC-3 [21]
  Activity: Dose-dependent effect
PC-3 [22]
  Activity: 34.6%
PC-3 [23]
  Activity: 45.4%
PC-3 [24]
  Activity: 47.8%
PC-3 [25]
  Activity: 1.8%
LNCaP
  GI50: 270 nM
PC-3 [26]
  Activity: Dose-dependent effect
PC-3 [27]
  Activity: 3.7%
